Test results as given in ChEMBL document CHEMBL6114991, “Design, synthesis, and biological evaluation of novel quinoline carboxylic acid based styryl/alkyne hybrid molecule as a potent anti-adipogenic and antidyslipidemic agent via activation of Wnt/β-catenin pathway” (Eur J Med Chem, 2025).
Active and inactive are the calls of the source. The rule behind the calls is not given here.

How the values were obtained:
3T3-L1 [1] = assay: Anti-adipogenic activity in mouse 3T3-L1 cells at 20 uM relative to control; assay type: functional
3T3-L1 [2] = assay: Cytotoxicity against mouse 3T3-L1 cells assessed as cell viability at 20 uM incubated for 48 hrs by MTT assay; assay type: toxicity, cell-based; details: 3t3-l1, 48 h
3T3-L1 [3] = assay: Anti-adipogenic activity in mouse 3T3-L1 cells assessed as reduction in lipid accumulation at 10 uM by microscopic analysis; assay type: functional, cell-based
3T3-L1 [4] = assay: Anti-adipogenic activity in mouse 3T3-L1 cells assessed as suppression of adipogenesis at 20 uM measured for 72 hrs by oil red O staining based analysis; assay type: functional
3T3-L1 [5] = assay: Anti-adipogenic activity in MDI-induced mouse 3T3-L1 cells assessed as suppression of adipogenesis at 0.3 uM by oil red O staining based analysis; assay type: functional, cell-based; details: time 72.0 hrs
3T3-L1 [6] = assay: Anti-adipogenic activity in mouse 3T3-L1 cells assessed as suppression of adipogenesis at 30 uM measured for 72 hrs by oil red O staining based analysis; assay type: functional, cell-based
3T3-L1 [7] = assay: Cytotoxicity against mouse 3T3-L1 cells assessed as cell viability at 30 uM incubated for 48 hrs by MTT assay; assay type: toxicity, cell-based; details: 3t3-l1, 48 h

| Structure (SMILES) | Activity (3T3-L1 [1]; time 72.0 hrs) | Activity (3T3-L1 [2]) | also measured |
| --- | --- | --- | --- |
| O=C(O)c1cc(-c2ccc(C#Cc3ccc(F)cc3)cc2)nc2ccccc12 | inactive | Toxic |  |
| O=C(O)c1cc(-c2ccc(/C=C/c3ccccn3)cc2)nc2ccccc12 | inactive |  |  |
| Cc1cc([N+](=O)[O-])ccc1NS(=O)(=O)c1cc(Cl)ccc1Cl |  |  | Activity (3T3-L1 [3]): Active |
| Cc1ccc(/C=C/c2ccc(-c3cc(C(=O)O)c4ccccc4n3)cc2)cc1 |  | Non-toxic | Activity (3T3-L1 [4]): 70%; Activity (3T3-L1 [5]): inactive; Activity (3T3-L1 [6]): Active; Activity (3T3-L1 [7]): Toxic; Activity (3T3-L1 [1]; time 72 hrs): 68% |
| O=C(O)c1ccc(/C=C/c2ccc(-c3cc(C(=O)O)c4ccccc4n3)cc2)cc1 | inactive | Toxic |  |
| CCCCCCCCOC(=O)c1cc(-c2ccc(/C=C/c3ccc(C)cc3)cc2)nc2ccc(F)cc12 | inactive | Toxic |  |
| O=C(O)c1cc(-c2ccc(C#Cc3ccccc3)cc2)nc2ccccc12 | inactive |  |  |
| Cc1ccc(/C=C/c2ccc(-c3cc(C(=O)O)c4cc(Cl)ccc4n3)cc2)cc1 |  | Toxic | Activity (3T3-L1 [1]; time 72 hrs): 76% |
| CC(C)(C)c1ccc(C#Cc2ccc(-c3cc(C(=O)O)c4ccccc4n3)cc2)cc1 |  | Non-toxic | Activity (3T3-L1 [4]): 70%; Activity (3T3-L1 [5]): Active; Activity (3T3-L1 [7]): Toxic; Activity (3T3-L1 [1]; time 72 hrs): 69% |
| CC(C)(C)c1ccc(/C=C/c2ccc(-c3cc(C(=O)O)c4ccccc4n3)cc2)cc1 |  | Non-toxic | Activity (3T3-L1 [4]): 70%; Activity (3T3-L1 [1]; time 72 hrs): 67% |
| COc1ccc(C#Cc2ccc(-c3cc(C(=O)O)c4ccccc4n3)cc2)cc1 |  | Toxic | Activity (3T3-L1 [1]; time 72 hrs): 69% |
| Cc1cccc(C#Cc2ccc(-c3cc(C(=O)O)c4ccccc4n3)cc2)c1 |  | Toxic | Activity (3T3-L1 [1]; time 72 hrs): 68% |
| CCCCOC(=O)c1cc(-c2ccc(/C=C/c3ccc(C)cc3)cc2)nc2ccc(F)cc12 | inactive | Toxic |  |
| Cc1ccc(/C=C/c2ccc(-c3cc(C(=O)O)c4cc(C)ccc4n3)cc2)cc1 | inactive |  |  |
| O=C(O)c1cc(-c2ccc(/C=C/c3ccccc3)cc2)nc2ccccc12 | inactive |  |  |
| O=C(O)c1cc(-c2ccc(/C=C/c3ccncc3)cc2)nc2ccccc12 | inactive |  | Activity (3T3-L1 [5]): Active; Activity (3T3-L1 [7]): Toxic |
| CCOC(=O)c1cc(-c2ccc(/C=C/c3ccc(C)cc3)cc2)nc2ccc(F)cc12 | inactive | Toxic |  |
| CCCOC(=O)c1cc(-c2ccc(/C=C/c3ccc(C)cc3)cc2)nc2ccc(F)cc12 | inactive | Toxic |  |
| O=C(O)c1cc(-c2ccc(/C=C/c3ccc4ccccc4c3)cc2)nc2ccccc12 | inactive |  |  |
| CCCCCOC(=O)c1cc(-c2ccc(/C=C/c3ccc(C)cc3)cc2)nc2ccc(F)cc12 | inactive | Toxic |  |
| Cc1ccc(/C=C/c2ccc(-c3cc(C(=O)O)c4cc(C)cc(Cl)c4n3)cc2)cc1 | inactive |  |  |
| Cc1ccc(/C=C/c2ccc(-c3cc(C(=O)O)c4cccc(Cl)c4n3)cc2)cc1 | inactive |  |  |
| Cc1ccc(/C=C/c2ccc(-c3cc(C(=O)O)c4cc(OC(F)(F)F)ccc4n3)cc2)cc1 | inactive |  |  |
| Cc1ccc(C#Cc2ccc(-c3cc(C(=O)O)c4ccccc4n3)cc2)cc1 |  |  | Activity (3T3-L1 [1]; time 72 hrs): 74% |
| CCCCCCOC(=O)c1cc(-c2ccc(/C=C/c3ccc(C)cc3)cc2)nc2ccc(F)cc12 | inactive | Toxic |  |
| COC(=O)c1cc(-c2ccc(/C=C/c3ccc(C)cc3)cc2)nc2ccc(F)cc12 | inactive | Toxic |  |
| O=C(O)c1cc(-c2ccc(/C=C/c3ccc(Cl)cc3)cc2)nc2ccccc12 | inactive |  |  |
| COc1ccc2nc(-c3ccc(/C=C/c4ccc(C)cc4)cc3)cc(C(=O)O)c2c1 | inactive | Non-toxic | Activity (3T3-L1 [4]): 70% |
| Cc1ccc(/C=C/c2ccc(-c3cc(C(=O)OC(C)C)c4cc(F)ccc4n3)cc2)cc1 | inactive | Toxic |  |
